Like-named read-outs stand apart in the source and are kept apart here.
Legend:
[1] = molecular target: T1, human 5-HT4B receptor (clone hp78a) (Homo sapiens, UniProt P34969); test: [3H]5-HT radioligand binding to membranes of Cos-7 cells transiently expressing clone hp78a; conditions: for Ki: read-out: Ki (apparent dissociation constants for clone hp78a)
T1 construct: The entire coding region of the human 5-HT4B receptor (1338 bp); expressed in transfected cells; host or cells: Cos-7 (monkey kidney), transient, plasmid hp78a/EXJ (pcEXV-5HT4B)
T1 sequence (P34969 1-445 isoform P34969-2): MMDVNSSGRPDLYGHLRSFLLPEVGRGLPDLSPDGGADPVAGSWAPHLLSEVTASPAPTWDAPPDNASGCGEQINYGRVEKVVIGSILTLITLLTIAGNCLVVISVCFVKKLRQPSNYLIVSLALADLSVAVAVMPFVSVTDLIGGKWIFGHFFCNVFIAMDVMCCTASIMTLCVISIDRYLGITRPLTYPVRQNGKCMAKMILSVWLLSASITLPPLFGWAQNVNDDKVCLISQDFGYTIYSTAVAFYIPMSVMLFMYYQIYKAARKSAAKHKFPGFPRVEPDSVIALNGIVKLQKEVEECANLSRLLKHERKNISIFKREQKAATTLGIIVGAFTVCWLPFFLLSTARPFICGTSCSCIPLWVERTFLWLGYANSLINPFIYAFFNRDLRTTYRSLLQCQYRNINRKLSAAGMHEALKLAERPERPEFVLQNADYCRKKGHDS

[2] = molecular target: T2, human 5-HT4B receptor (Homo sapiens, UniProt P34969); test: cAMP formation in intact, transiently transfected Cos-7 cells; assay type: cell-based; conditions: for activity at the clone hp78a receptor: compounds used to define the classical 5-HT4 receptor
T2 construct: The entire coding region of the human 5-HT4B receptor (1338 bp); expressed in transfected cells
T2 sequence (P34969 1-445 isoform P34969-2): as above

[3] = molecular target: T2, human 5-HT4B receptor; test: cell-based; assay type: cell-based
[4] = test system: 5-HT receptor present in glial membranes; conditions: Fillion et al., 1980; property shared with hp78a; cited from earlier work
[5] = molecular target: T3, 5-HT4B receptor (Rattus norvegicus, UniProt P32305); test: [3H]5-CT receptor autoradiography on rat brain sections; assay type: binding; conditions: masks: 100 nM PAPP and 160 nM (−)pindolol added together
T3 construct: from tissue; host or cells: rat brain cryostat sections (20 µm)
T3 sequence (P32305 whole entry): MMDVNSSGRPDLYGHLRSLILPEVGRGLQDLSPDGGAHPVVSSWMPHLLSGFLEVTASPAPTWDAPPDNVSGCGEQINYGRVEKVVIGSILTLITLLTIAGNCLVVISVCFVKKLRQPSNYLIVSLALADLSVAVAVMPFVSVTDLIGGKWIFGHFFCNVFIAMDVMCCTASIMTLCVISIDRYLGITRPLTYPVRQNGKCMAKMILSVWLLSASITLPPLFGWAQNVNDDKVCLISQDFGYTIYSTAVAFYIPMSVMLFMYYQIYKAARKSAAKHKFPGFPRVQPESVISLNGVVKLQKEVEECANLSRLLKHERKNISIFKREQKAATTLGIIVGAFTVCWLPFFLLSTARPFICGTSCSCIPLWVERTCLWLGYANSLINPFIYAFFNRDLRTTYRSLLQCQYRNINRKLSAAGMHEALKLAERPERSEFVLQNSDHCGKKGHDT

[6] = test system: 5-HT receptors on NCB20 cells; conditions: Berry-Kravis and Dawson, 1983; read-out: affinity of [3H]-5-HT; cited from earlier work
[7] = molecular target: 5-HT receptor present in glial membranes; conditions: Fillion et al., 1980; property shared with hp78a; read-out: equilibrium dissociation constant Kd; cited from earlier work
[8] = 5 nM [3H]5-HT, seven concentrations of competitor, 30 min at 37° C., mean ± S.E.M., 2-5 determinations
[9] = 30 nM competitor, 5 nM [3H]5-HT, 30 min at 37° C.
[10] = 100 nM competitor, 5 nM [3H]5-HT, 30 min at 37° C.

Structure (SMILES): CN1[C@@H]2CC[C@H]1C[C@@H](OC(=O)c1c[nH]c3ccccc13)C2 [ICS 203930]
- PERCENT INHIBITION (displacement of specific [3H]5-HT binding) ([1]; 1000 nM competitor, 5 nM [3H]5-HT, 30 min at 37° C.): 10
- inhibitory effect on the 5-HT response ([2]; 100 μM): weak inhibitory effect
- % INHIBITION OF 5-HT RESPONSE ([2]; 100 μM drug, cAMP response to 1 μM 5-HT): 36 ± 3.0%
- FOLD cAMP STIMULATION ([2]; 100 μM drug, relative to basal levels): 0
- activity at the clone hp78a receptor [2]: either poorly active or inactive

Structure (SMILES): O=C(c1ccc(F)cc1)C1CCN(CCn2c(=O)[nH]c3ccccc3c2=O)CC1 [Ketanserin]
- Ki [1, 8]: 1330 ± 241 nM

Structure (SMILES): CN1C[C@@H](NS(=O)(=O)N(C)C)C[C@@H]2c3cccc4c3c(cn4C)C[C@H]21 [Mesulergine]
- Emax ([3]; L-M(TK-), read-out: Emax* (% 5-HT RESPONSE)): 0%
- Kb ([3]; dissociation constant of antagonist, KB = [B]/(A′/A) − 1], read-out: KB): 20 ± 1 nM

Structure (SMILES): CN1C[C@H](CNC(=O)OCc2ccccc2)C[C@@H]2c3cccc4c3c(cn4C)C[C@H]21 [Metergoline]
- Ki [1, 8]: 6.4 ± 1.4 nM
- antagonism of the 5-HT response ([2]; 10 μM): almost completely
- FOLD cAMP STIMULATION ([2]; 10 μM drug, relative to basal levels): 0

Structure (SMILES): CC[C@@H](CO)NC(=O)[C@@H]1C=C2c3cccc4c3c(cn4C)C[C@H]2N(C)C1 [Methysergide]
- Ki [1]: 83 ± 5 nM
- antagonism [4]: Potent antagonism
- FOLD cAMP STIMULATION [2]: 1.7 ± 0.43
- antagonism of the 5-HT response [2]: almost completely

Structure (SMILES): NC[C@H](O)c1ccc(O)c(O)c1 [Norepinephrine]
- PERCENT INHIBITION (displacement of specific [3H]5-HT binding) [1, 9]: 0

Structure (SMILES): Cc1cc(C(C)(C)C)c(O)c(C)c1CC1=NCCN1 [Oxymetazoline]
- PERCENT INHIBITION (displacement of specific [3H]5-HT binding) ([1]; 10 nM competitor, 5 nM [3H]5-HT, 30 min at 37° C.): 6

Structure (SMILES): Nc1ccc(CCN2CCN(c3cccc(C(F)(F)F)c3)CC2)cc1 [PAPP]
- PERCENT INHIBITION (displacement of specific [3H]5-HT binding) [1]: 21
- effect on [3H]5-CT binding [5]: markedly reduced

Structure (SMILES): CC(C)NCC(O)COc1cccc2ccccc12 (stereo not shown) [Propranolol]
- PERCENT INHIBITION (displacement of specific [3H]5-HT binding) [1, 10]: 0

Structure (SMILES): c1ccc2nc(N3CCNCC3)ccc2c1 [Quipazine]
- PERCENT INHIBITION (displacement of specific [3H]5-HT binding) [1, 10]: 3

Structure (SMILES): Cc1nc2sccn2c(=O)c1CCN1CCC(=C(c2ccc(F)cc2)c2ccc(F)cc2)CC1 [Ritanserin]
- Ki [1, 8]: 45 ± 10 nM

Structure (SMILES): O=C(CCCN1CCC2(CC1)C(=O)NCN2c1ccccc1)c1ccc(F)cc1 [Spiperone]
- Ki [1, 8]: 110 ± 17 nM

Structure (SMILES): O=C1NCN(c2ccccc2)C12CCN(CC1COc3ccccc3O1)CC2 (stereo not shown) [Spiroxatrine]
- PERCENT INHIBITION (displacement of specific [3H]5-HT binding) [1, 9]: 12

Structure (SMILES): CNS(=O)(=O)Cc1ccc2[nH]cc(CCN(C)C)c2c1 [Sumatriptan]
- Ki [1]: 951 ± 118 nM

Structure (SMILES): COC(=O)[C@@H]1[C@H]2C[C@H]3c4[nH]c5ccccc5c4CCN3C[C@@H]2CC[C@@H]1O [Yohimbine]
- Ki [1]: 2850 ± 354 nM

Structure (SMILES): COc1cc(N)c(Cl)cc1C(=O)NC1CN2CCC1CC2 (stereo not shown) [Zacopride]
- Ki [1]: > 5000 nM
- activity at the clone hp78a receptor [2]: either poorly active or inactive

Structure (SMILES): NCCc1c[nH]c2ccc(O)cc12 [[^3H]5-HT]
- Kd [6]: ~200 nM
- Kd [7]: 10 nM

Structure (SMILES): COc1cc(N)c(Cl)cc1C(=O)NC1CCN(CCCOc2ccc(F)cc2)CC1OC (stereo not shown) [cisapride]
- activity at the clone hp78a receptor [2]: either poorly active or inactive

Structure (SMILES): CCN(CC)C(=O)[C@@H]1C=C2c3cccc4[nH]cc(c34)C[C@H]2N(C)C1 [d-LSD]
- PERCENT INHIBITION (displacement of specific [3H]5-HT binding) [1]: 77
- INTRINSIC ACTIVITY [3]: ANTAGONIST
- Emax* (% 5-HT RESPONSE) ([3]; normalized to the 5-HT maximal response): 0 % 5-HT RESPONSE

Reference: US6432655B1, “Method of obtaining compositions” (Synaptic Pharmaceutical Corporation, priority 1992, dated 2002)
